In ChEMBL document CHEMBL1201862, “PubChem BioAssay data set” (2004):
Active and inactive are the calls of the source.

Assays:
[1] = inhibitors of intracellular T. cruzi replication, confirmation, NIH3T3 host cells, beta-gal luminescence (AID 2044); format: functional, cell-based;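 note: intracellular parasites grown in NIH/3T3 mouse fibroblasts as host cells; luminescent beta-galactosidase reporter signal from transgenic T. cruzi replicating inside host cells; inhibitors lower the luminescence signal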
[2] = cytotoxicity toward NIH3T3 fibroblasts, dose response, counter-screen, cell-based, ATP luminescence, mouse fibroblasts (AID 2010); format: functional; conditions: NIH3T3;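 note: cells exposed to compound for about 90 hours before reading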
[3] = biological target: Voltage-dependent T-type calcium channel subunit alpha-1H (Homo sapiens, UniProt O95180); format: functional;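 note: channel activity triggered by adding a high calcium stimulation buffer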
Chain of Voltage-dependent T-type calcium channel subunit alpha-1H (O95180 whole entry): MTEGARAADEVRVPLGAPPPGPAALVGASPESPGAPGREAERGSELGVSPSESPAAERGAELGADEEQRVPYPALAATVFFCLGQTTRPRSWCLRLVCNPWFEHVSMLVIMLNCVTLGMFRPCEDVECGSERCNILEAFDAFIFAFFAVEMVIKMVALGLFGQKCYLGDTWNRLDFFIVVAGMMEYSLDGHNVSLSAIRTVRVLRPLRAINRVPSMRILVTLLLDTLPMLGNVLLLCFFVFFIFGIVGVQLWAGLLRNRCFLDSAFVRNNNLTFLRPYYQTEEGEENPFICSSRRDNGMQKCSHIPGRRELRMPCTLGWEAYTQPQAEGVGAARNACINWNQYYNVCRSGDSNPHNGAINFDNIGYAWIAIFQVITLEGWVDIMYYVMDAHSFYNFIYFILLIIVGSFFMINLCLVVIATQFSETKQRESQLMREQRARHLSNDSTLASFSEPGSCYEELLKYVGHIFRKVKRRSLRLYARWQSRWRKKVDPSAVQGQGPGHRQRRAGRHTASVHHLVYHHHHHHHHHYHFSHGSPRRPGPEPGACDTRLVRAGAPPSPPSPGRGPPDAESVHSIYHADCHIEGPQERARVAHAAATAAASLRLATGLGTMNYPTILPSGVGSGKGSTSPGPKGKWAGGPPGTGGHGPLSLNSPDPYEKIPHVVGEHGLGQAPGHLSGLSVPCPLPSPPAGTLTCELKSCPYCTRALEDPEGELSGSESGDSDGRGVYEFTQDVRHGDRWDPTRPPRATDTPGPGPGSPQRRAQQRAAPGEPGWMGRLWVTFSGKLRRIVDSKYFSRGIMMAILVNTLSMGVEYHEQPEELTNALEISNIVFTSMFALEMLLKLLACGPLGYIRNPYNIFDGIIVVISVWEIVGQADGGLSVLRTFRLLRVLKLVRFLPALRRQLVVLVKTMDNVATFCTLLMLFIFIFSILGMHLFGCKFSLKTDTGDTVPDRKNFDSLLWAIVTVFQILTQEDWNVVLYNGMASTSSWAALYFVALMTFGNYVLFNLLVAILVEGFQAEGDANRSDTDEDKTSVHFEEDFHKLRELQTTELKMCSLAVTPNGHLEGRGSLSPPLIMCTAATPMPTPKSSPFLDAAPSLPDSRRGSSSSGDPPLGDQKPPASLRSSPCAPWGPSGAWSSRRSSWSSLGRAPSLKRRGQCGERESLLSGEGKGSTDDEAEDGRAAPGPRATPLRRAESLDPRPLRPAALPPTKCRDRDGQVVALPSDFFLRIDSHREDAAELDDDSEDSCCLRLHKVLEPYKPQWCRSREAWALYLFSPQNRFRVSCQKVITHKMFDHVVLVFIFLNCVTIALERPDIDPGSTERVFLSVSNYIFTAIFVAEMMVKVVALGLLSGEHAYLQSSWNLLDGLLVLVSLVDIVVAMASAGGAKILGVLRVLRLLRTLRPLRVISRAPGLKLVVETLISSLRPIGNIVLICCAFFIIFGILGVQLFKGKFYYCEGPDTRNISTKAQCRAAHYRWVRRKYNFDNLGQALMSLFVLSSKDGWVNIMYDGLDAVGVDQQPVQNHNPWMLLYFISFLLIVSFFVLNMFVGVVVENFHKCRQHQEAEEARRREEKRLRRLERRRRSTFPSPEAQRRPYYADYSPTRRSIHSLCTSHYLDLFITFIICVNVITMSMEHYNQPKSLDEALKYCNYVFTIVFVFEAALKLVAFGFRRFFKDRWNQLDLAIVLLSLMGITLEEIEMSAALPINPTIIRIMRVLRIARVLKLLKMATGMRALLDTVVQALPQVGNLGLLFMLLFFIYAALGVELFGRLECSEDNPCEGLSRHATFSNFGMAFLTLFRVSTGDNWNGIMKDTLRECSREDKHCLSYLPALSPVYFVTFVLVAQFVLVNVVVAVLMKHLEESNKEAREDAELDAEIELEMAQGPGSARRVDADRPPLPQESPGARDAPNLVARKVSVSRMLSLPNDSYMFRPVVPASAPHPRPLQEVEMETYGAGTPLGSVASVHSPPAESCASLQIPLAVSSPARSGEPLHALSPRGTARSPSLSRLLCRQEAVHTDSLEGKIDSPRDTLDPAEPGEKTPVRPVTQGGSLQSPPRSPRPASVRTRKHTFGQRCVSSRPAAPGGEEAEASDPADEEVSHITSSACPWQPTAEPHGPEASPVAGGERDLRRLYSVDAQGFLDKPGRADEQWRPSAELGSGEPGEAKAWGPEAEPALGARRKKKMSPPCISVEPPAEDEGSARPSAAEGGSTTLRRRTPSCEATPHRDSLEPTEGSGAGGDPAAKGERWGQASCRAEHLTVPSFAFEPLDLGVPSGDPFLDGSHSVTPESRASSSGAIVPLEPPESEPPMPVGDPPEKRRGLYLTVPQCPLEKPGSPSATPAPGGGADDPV

[4] = microbe, parasite or virus in culture; format: functional; conditions: Mycobacterium tuberculosis
[5] = biological target: T1, Ubiquitin-conjugating enzyme E2 N (Homo sapiens, UniProt P61088); format: functional;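 note: Dose-response confirmation in a TR-FRET assay detecting UBC13-driven polyubiquitin chain formation, inhibition measured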
T1 sequence (P61088 whole entry): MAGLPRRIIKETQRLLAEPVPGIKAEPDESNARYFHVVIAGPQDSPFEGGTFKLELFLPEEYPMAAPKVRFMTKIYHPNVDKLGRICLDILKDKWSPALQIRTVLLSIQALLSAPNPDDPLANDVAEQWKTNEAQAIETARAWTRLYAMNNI

[6] = inhibitors of HIV Env-driven cell fusion, dose response, cherry-pick (AID 652057); format: functional, cell-based
[7] = tested on: Vero; assay: cells; format: functional; conditions: Chlorocebus sabaeus
[8] = cytotoxicity in HEK-293T cells, dose response, cytotoxicity control for BCR NF-kB inhibitor project, luminescence, B-cell screen hits (AID 489021); format: functional, cell-based;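 note: HEK-293T cells carrying an NF-kB luciferase reporter; cells exposed to compound for about 14 hours before viability readout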
[9] = tested on: INS1; assay: beta cell apoptosis inhibitors, cytokine rescue, dose response, luminescence, retest (AID 449756); format: functional, cell-based; conditions: Rattus norvegicus;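 note: cell death triggered by IL-1 beta plus TNF-alpha plus IFN-gamma mixture; protective hits raise ATP signal compared with cytokine alone wells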
[10] = biological target: T2, DNA repair protein RAD52 homolog (Homo sapiens, UniProt P43351); format: functional, biochemical
T2 sequence (P43351 whole entry): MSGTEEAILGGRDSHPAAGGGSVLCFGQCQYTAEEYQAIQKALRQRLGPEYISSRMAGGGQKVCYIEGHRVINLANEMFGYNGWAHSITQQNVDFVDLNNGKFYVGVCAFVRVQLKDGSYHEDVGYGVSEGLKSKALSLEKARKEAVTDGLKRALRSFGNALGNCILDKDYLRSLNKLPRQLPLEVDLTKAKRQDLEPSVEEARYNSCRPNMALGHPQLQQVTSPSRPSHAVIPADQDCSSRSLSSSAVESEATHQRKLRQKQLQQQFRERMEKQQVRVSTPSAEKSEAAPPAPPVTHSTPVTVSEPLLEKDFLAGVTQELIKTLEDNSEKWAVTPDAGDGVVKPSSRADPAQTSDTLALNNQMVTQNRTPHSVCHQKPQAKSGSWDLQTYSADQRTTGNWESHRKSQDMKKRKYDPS

[11] = inhibitors of firefly luciferase expression or activity, dose response, H4 neuroglioma cells, luminescence (AID 1990); format: functional, cell-based
[12] = Luminescence Cell-Based Dose Response HTS to Identify Inhibitors of 5'UTR Stem-Loop Driven Prion Protein mRNA Translation in H4 Neuroglioblastoma Cells. [Related pubchem assays: 1827 (Project Summary), 1813 (Primary HTS)]; format: functional
[13] = inhibitors of SNCA 5'UTR-driven reporter translation, confirmation, H4 neuroglioma cells, luminescence (AID 1988); format: functional, cell-based
[14] = biological target: Induced myeloid leukemia cell differentiation protein Mcl-1 (Homo sapiens, UniProt Q07820); format: functional
Chain of Induced myeloid leukemia cell differentiation protein Mcl-1 (Q07820 whole entry): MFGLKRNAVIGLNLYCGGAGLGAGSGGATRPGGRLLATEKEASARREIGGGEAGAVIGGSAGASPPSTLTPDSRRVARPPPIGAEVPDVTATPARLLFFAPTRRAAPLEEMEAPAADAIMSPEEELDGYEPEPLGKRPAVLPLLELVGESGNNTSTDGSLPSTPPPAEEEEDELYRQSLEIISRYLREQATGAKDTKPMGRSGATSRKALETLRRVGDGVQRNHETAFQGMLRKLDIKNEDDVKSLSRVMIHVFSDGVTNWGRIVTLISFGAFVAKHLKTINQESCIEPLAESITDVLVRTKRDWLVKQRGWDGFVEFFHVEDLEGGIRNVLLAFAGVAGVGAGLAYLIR

[15] = Luminescence Cell-Based Dose Retest to Confirm Inhibitors of Cancer Stem Cells. [Related pubchem assays (depositor defined):AID2717, AID2721]; format: functional, Homo sapiens; conditions: Homo sapiens
[16] = biological target: T3, Rac GTPase-activating protein 1 (Homo sapiens, UniProt Q9H0H5); assay: MgcRacGAP GTPase-activating activity inhibitors, confirmation, biochemical, ADP Hunter fluorescence, primary and confirmatory (AID 624330); format: functional
T3 sequence (Q9H0H5 whole entry): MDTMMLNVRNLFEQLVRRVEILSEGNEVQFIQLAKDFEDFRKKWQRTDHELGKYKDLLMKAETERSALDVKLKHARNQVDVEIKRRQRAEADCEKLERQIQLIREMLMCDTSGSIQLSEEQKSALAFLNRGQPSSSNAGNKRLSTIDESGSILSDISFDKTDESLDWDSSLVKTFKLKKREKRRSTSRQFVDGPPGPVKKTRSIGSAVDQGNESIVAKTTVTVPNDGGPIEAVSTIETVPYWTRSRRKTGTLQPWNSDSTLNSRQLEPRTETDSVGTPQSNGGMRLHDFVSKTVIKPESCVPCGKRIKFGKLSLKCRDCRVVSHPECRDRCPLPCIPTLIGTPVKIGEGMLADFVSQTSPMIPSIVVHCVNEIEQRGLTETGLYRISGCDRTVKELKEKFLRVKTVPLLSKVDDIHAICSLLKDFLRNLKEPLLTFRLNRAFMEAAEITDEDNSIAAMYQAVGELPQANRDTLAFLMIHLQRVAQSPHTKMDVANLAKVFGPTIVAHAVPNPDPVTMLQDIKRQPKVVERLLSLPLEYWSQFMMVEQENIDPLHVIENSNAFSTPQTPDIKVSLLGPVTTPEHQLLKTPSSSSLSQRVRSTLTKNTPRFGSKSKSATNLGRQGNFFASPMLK

[17] = biological target: T4, Replicative DNA helicase DnaB (Mycobacterium tuberculosis, UniProt P9WMR3); assay: DnaB intein splicing inhibitors, dose response, biochemical, cell-free fluorescence (AID 449749); format: functional
T4 sequence (P9WMR3 whole entry): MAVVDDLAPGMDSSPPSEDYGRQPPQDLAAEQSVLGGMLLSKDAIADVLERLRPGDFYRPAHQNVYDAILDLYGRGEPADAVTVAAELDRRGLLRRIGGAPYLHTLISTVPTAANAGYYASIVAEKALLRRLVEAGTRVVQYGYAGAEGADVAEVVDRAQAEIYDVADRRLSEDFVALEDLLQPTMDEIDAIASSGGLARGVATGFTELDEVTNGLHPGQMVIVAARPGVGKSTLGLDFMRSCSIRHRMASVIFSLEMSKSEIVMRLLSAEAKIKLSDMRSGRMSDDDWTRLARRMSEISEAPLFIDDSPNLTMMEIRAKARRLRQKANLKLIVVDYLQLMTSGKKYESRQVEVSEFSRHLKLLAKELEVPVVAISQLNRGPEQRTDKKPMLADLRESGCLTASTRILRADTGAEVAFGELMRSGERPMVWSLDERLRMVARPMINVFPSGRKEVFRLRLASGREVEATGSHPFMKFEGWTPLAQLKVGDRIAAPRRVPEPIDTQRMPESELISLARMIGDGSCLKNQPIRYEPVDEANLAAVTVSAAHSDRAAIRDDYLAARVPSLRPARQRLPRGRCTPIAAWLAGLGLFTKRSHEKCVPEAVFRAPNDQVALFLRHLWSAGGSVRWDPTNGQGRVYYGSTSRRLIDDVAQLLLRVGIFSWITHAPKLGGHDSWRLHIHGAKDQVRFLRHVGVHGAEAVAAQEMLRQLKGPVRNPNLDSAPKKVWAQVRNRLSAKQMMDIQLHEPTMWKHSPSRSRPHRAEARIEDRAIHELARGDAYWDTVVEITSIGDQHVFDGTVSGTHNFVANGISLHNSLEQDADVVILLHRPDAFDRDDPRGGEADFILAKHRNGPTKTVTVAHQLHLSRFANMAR

[18] = biological target: T5, Protein RecA (Mycobacterium tuberculosis, UniProt P9WHJ3); assay: Fluorescence Cell-Free Homogeneous Dose Retest to Identify Inhibitors of RecA-Intein Splicing Activity. [Related pubchem assays (depositor defined):AID2097, AID2223, AID489010, AID492950]; format: functional
T5 sequence (P9WHJ3 whole entry): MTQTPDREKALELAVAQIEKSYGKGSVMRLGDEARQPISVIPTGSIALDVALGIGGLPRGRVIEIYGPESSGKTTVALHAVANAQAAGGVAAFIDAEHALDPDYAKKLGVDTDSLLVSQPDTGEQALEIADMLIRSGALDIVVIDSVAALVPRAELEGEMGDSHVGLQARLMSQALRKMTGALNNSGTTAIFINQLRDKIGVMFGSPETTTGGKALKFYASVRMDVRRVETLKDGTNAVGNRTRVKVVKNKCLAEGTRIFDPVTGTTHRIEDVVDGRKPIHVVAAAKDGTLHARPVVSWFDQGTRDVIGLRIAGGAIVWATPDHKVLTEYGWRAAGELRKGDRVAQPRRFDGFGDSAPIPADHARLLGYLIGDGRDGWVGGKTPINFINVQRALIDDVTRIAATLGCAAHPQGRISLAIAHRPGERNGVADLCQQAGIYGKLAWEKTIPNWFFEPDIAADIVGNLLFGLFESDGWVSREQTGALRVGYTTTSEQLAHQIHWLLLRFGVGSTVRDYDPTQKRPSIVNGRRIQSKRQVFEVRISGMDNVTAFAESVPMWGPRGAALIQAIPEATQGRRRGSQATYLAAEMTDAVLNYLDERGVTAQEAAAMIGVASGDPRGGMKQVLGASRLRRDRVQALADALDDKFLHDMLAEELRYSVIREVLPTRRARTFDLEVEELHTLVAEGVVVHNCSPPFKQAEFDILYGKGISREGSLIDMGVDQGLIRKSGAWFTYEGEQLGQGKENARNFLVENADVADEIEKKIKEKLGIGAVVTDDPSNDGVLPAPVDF

[19] = NIH-3T3 fibroblast cytotoxicity, dose response, cytotoxicity control, cell-based, fluorescence, Alamar Blue, secondary assay (AID 2327); format: functional;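 note: NIH-3T3 mouse fibroblasts cultured with fluconazole at 8 µg/mL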
[20] = tested on: HEK293; assay: NOD1 signaling inhibitors, primary screen, cell-based, luminescence, uHTS (AID 1578); format: functional; conditions: Homo sapiens
[21] = tested on: HEK293; assay: cells; format: functional, cell-based; conditions: Homo sapiens
[22] = C. albicans growth with fluconazole, confirmation, fluorescence, retest (AID 2467); format: functional, cell-based
[23] = tested on: HEK293; assay: cells; format: functional, cell-based; conditions: Homo sapiens; remark: listed apart in the source
[24] = tested on: HEK293; assay: NOD2 signaling inhibitors in MDP-stimulated cells, cell-based, uHTS, luminescence (AID 2001); format: functional; conditions: Homo sapiens

Cc1c(C(=O)NCC2COc3ccccc3O2)oc2ccc(S(=O)(=O)N(C)C3CCCCC3)cc12 (centres undefined)
EC50 [1]: 1.89 µM (active) | EC50 [2]: > 60 µM (not active) | EC50 [3]: 5.64 µM (active)

FC(F)(F)c1cc(CO[C@@H]2CCCN[C@@H]2c2ccccc2)cc(C(F)(F)F)c1
CC50 [4]: 24.2 µM (active) | IC50 [5]: > 20 µM (inactive)

CCC(=O)N(C)C[C@H]1Oc2cc(/C=C/c3ccccc3)ccc2S(=O)(=O)N([C@@H](C)CO)C[C@H]1C
AC50 [6]: 20.7 µM (active)

CC/C(NCc1ccc2c(c1)OCO2)=C1/C(=O)NC(=O)N(C2CCCCC2)C1=O
EC50 [3]: 5.15 µM (active)

CSc1ccc(C(=O)/C=C/c2ccc(N)cc2)cc1
CC50 [7]: 18.7 µM (active)

COc1ccc(C(=O)Nc2ccccc2C(=O)NCc2ccco2)cc1OC
IC50 [8]: > 80 µM (inactive)

CC(C)Cn1c(SCC(=O)c2ccc(Cl)s2)nnc1-c1ccco1
EC50 [3]: 10.6 µM (active) | CC50 [7]: > 25 µM (active)

Cc1ccc(-c2cn3c([n+]2-c2ccccc2)SCC3)cc1
EC50 [1]: 0.282 µM (active) | EC50 [2]: > 60 µM (not active) | IC50 [8]: > 80 µM (inactive) | AC50 [9]: 3.11 µM (active)

CCN(CC)CCNc1ncnc2c1sc1nc(N3CCOCC3)c3c(c12)CCCC3
IC50 [5]: > 20 µM (inactive) | AC50 [10]: 4.88 µM (active)

O=C(Nc1nc2ccccc2s1)C1CC(=O)N(c2ccccc2)C1 (centres undefined)
EC50 [3]: 8.11 µM (active)

CSC1CCCCC1(O)CSc1nc2c(cc1C#N)CCCC2 (centres undefined)
EC50 [11]: 14.1 µM (active) | EC50 [12]: 22.3 µM (active) | EC50 [13]: > 120 µM (not active) | IC50 [8]: > 80 µM (inactive)

O=[N+]([O-])c1ccc2c(c1)=[N+]([O-])C1(CCCCC1)[N+]=2[O-]
IC50 [14]: 4.85 µM (active)

CN(C)CCCOc1ccc(-c2cc3nc(NCc4cccnc4)n(C)c(=O)c3s2)cn1
AC50 [10]: 11.2 µM (active)

CC1Cc2ccccc2N1S(=O)(=O)c1cnc(Cl)c(Br)c1 (centres undefined)
IC50 [8]: 69.3 µM (inactive)

Cc1ccc(-c2nnn(CC(=O)N3CCCc4ccccc43)n2)cc1
EC50 [3]: 3.43 µM (active)

COC(=O)/C=C\C(C#N)(C#N)N=Cc1ccc(OC)cc1
CC50 [7]: > 25 µM (active)

CC(C)C[C@H](NC(=O)c1[nH]cnc1C(=O)NC(c1ccccc1)c1ccccc1)C(=O)OC(C)(C)C
AC50 [15]: 3.44 µM (active) | CC50 [7]: 19.3 µM (active)

CN1CCN(c2ccc(N)c(N3CCN(C)CC3)c2)CC1
IC50 [5]: > 20 µM (inactive) | IC50 [16]: 33.3 µM (active)

c1ccc(C[C@H]2CN=C(Nc3ccccc3)N2CCCC2CCCCC2)cc1
IC50 [5]: > 20 µM (inactive)

CNC(=O)c1ccccc1NC(=O)c1cccc(S(=O)(=O)N2CCC(C)CC2)c1
IC50 [5]: > 20 µM (inactive)

CCN(CC)CCOCCOc1ccc(Cl)c2ccccc12
CC50 [7]: > 25 µM (active)

CCN(CCN(C)C)C(=O)c1ccc2c(c1NCCO)C(=O)c1ccccc1C2=O
AC50 [17]: 0.0471 µM (active) | EC50 [18]: < 0.018 µM (active) | AC50 [10]: 6.06 µM (active)

COc1ccccc1/C=C1\SC(=S)N(CCC(=O)Nc2nnc(C)s2)C1=O
IC50 [8]: > 80 µM (inactive)

CC(C)(C)NC(=S)N/N=C/c1cc(Br)c(O)c(Br)c1
EC50 [19]: 32.2 µM (active) | EC50 [20]: 5.75 µM (active) | IC50 [21]: > 20 µM (inactive) | EC50 [22]: 2.86 µM (active) | IC50 [23]: > 20 µM (inactive) | IC50 [24]: 16.9 µM (inactive)

C/C(=N\NC(=O)c1nnn(-c2nonc2N)c1CN(C)c1ccccc1)c1ccccn1
CC50 [4]: 2.43 µM (active)

COc1ccc(NC(=O)c2nnn(Cc3cccc(F)c3)c2N)c(OC)c1
IC50 [8]: > 80 µM (inactive)

C=CCOc1ccc(C2C(C#N)=C(N)N(Nc3ccccc3)C3=C2C(=O)CC(C)(C)C3)cc1OC (centres undefined)
CC50 [4]: 35.8 µM (active)

CN(C)c1ccc(C(c2nnnn2CCOC(=O)Nc2ccc(Cl)cc2)N2CCOCC2)cc1 (centres undefined)
EC50 [3]: 9.17 µM (active)

COc1ccccc1OCC(=O)N(Cc1nc(-c2ccccc2)no1)C1CCCCC1
EC50 [3]: 5.55 µM (active)
